Laboratory results reported in the NIST ThermoML archive (doi:10.1007/s10765-016-2061-1).

Details: Liquid, Vibrating tube method

CCF [fluoroethane]
Details	mass density [kg/m3]
283.5 K, 49990 kPa	805.67
283.5 K, 60000 kPa	816.48
283.5 K, 69990 kPa	826.06
283.5 K, 79970 kPa	834.87
283.5 K, 90040 kPa	843.3
283.51 K, 10000 kPa	747.35
283.51 K, 15000 kPa	756.91
283.51 K, 20000 kPa	765.51
283.51 K, 25000 kPa	773.62
283.51 K, 30000 kPa	780.86
283.51 K, 40000 kPa	794.13
283.51 K, 100000 kPa	851.08
283.52 K, 1000 kPa	727.11
283.52 K, 3000 kPa	731.96
283.52 K, 4990 kPa	736.6
293.2 K, 1010 kPa	706.97
293.2 K, 3010 kPa	712.87
293.21 K, 5010 kPa	718.27
293.21 K, 10010 kPa	730.51
293.21 K, 15010 kPa	741.15
293.21 K, 20000 kPa	750.65
293.21 K, 25010 kPa	759.29
293.21 K, 30010 kPa	767.25
293.21 K, 70000 kPa	815.59
293.21 K, 80000 kPa	825
293.22 K, 40010 kPa	781.39
293.22 K, 50000 kPa	793.87
293.22 K, 60000 kPa	805.15
293.22 K, 90000 kPa	833.51
293.22 K, 99990 kPa	841.66
303.23 K, 3010 kPa	692.69
303.23 K, 5010 kPa	699.12
303.23 K, 10000 kPa	713.26
303.23 K, 15000 kPa	725.31
303.23 K, 20010 kPa	735.85
303.23 K, 30000 kPa	753.95
303.24 K, 25010 kPa	745.33
303.24 K, 40010 kPa	769.21
303.24 K, 50000 kPa	782.6
303.24 K, 60000 kPa	794.39
303.24 K, 70000 kPa	805.57
303.24 K, 80000 kPa	815.36
303.25 K, 90000 kPa	824.43
303.25 K, 100000 kPa	832.9
313.14 K, 3000 kPa	669.48
313.14 K, 5000 kPa	677.22
313.14 K, 10000 kPa	694
313.14 K, 15000 kPa	707.5
313.15 K, 20000 kPa	719.54
313.15 K, 25000 kPa	729.96
313.15 K, 30010 kPa	739.29
313.15 K, 40000 kPa	755.43
313.15 K, 50000 kPa	770.06
313.15 K, 60000 kPa	782.28
313.15 K, 70000 kPa	794.18
313.15 K, 80000 kPa	804.63
313.16 K, 90000 kPa	814.08
313.16 K, 100000 kPa	822.46
323 K, 3000 kPa	644.53
323 K, 5000 kPa	654.18
323 K, 10000 kPa	673.87
323 K, 15000 kPa	689.57
323 K, 20000 kPa	702.96
323 K, 25000 kPa	714.54
323 K, 90000 kPa	804.1
323.01 K, 30000 kPa	724.71
323.01 K, 40000 kPa	742.42
323.01 K, 50000 kPa	757.67
323.01 K, 60000 kPa	770.9
323.01 K, 69990 kPa	783.33
323.01 K, 80000 kPa	794.16
323.01 K, 100000 kPa	813.21
332.98 K, 3000 kPa	616.38
332.98 K, 5000 kPa	628.96
332.98 K, 10010 kPa	653.01
332.98 K, 50000 kPa	745.52
332.98 K, 60000 kPa	759.62
332.99 K, 15000 kPa	671.15
332.99 K, 20010 kPa	686.12
332.99 K, 25000 kPa	698.88
332.99 K, 29990 kPa	710.09
332.99 K, 39990 kPa	729.27
332.99 K, 69990 kPa	772.51
332.99 K, 80010 kPa	783.85
332.99 K, 90000 kPa	794.07
332.99 K, 100000 kPa	803.45
342.85 K, 3000 kPa	582.54
342.85 K, 5000 kPa	600.31
342.85 K, 10000 kPa	630.51
342.85 K, 15000 kPa	651.87
342.85 K, 20000 kPa	668.76
342.85 K, 25000 kPa	682.96
342.85 K, 30000 kPa	695.28
342.85 K, 40000 kPa	716.03
342.85 K, 60000 kPa	748.38
342.86 K, 50010 kPa	733.53
342.86 K, 70000 kPa	762.03
342.86 K, 79990 kPa	773.74
342.86 K, 90010 kPa	784.53
342.87 K, 100000 kPa	794.42
352.86 K, 5000 kPa	566.12
352.86 K, 10000 kPa	606.19
352.86 K, 15000 kPa	631.59
352.86 K, 19990 kPa	650.88
352.86 K, 25000 kPa	666.7
352.86 K, 29990 kPa	680.18
352.86 K, 39990 kPa	702.62
352.86 K, 50000 kPa	721.07
352.86 K, 59990 kPa	736.86
352.86 K, 70000 kPa	751.19
352.86 K, 79990 kPa	763.56
352.86 K, 90000 kPa	774.75
352.87 K, 99990 kPa	785.11
362.79 K, 4990 kPa	521.7
362.79 K, 10000 kPa	579.49
362.8 K, 15000 kPa	610.29
362.8 K, 19990 kPa	632.41
362.8 K, 24990 kPa	650.04
362.8 K, 30000 kPa	664.91
362.8 K, 40000 kPa	689.17
362.8 K, 49990 kPa	708.84
362.81 K, 59990 kPa	725.55
362.81 K, 70000 kPa	740.64
362.81 K, 80000 kPa	753.56
362.81 K, 90000 kPa	765.31
362.81 K, 99990 kPa	775.91
